Source: PubChem BioAssay AID330 (DTP/NCI, 2004)
“And” between values parts separate entries of the source, which are not always exact repeats. Equal entries are not always repeated. Toxic doses and inconclusive results are not listed.

Tested on: P388 leukemia ip, CD2F1 mice, survival T/C
Experiment: NCI In Vivo Anticancer Drug Screen. Data for tumor model P388 Leukemia (intraperitoneal) in CD2F1 (CDF1) mice
Conditions: endpoint: median survival time, higher = longer survival
In short: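 Mice carrying the transplanted tumor received test compound or vehicle. Survival was recorded in each group, and the value is the treated-group measurement divided by that of the vehicle-treated control group.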

[1] = dose: 50.0 mg/kg/injection, schedule: Q01DX009 (ip), vehicle: saline with Tween-80
[2] = dose: 100.0 mg/kg/injection, schedule: Q01DX009 (ip), vehicle: saline with Tween-80
[3] = dose: 60.0 mg/kg/injection, schedule: Q01DX005 (ip), vehicle: saline with Tween-80
[4] = dose: 100.0 mg/kg/injection, schedule: Q01DX001 (ip), vehicle: Klucel (hydroxypropylcellulose) (HPC)
[5] = dose: 200.0 mg/kg/injection, schedule: Q01DX009 (ip), vehicle: saline with Tween-80

## CC(C)Cn1c(C(C)C)nc([N+](=O)[O-])c1Sc1ncn[nH]1
dose: 25.0 mg/kg/injection, schedule: Q01DX005 (ip), vehicle: Klucel (hydroxypropylcellulose) (HPC)
  T/C: 108 % of control
dose: 50.0 mg/kg/injection, schedule: Q01DX005 (ip), vehicle: Klucel (hydroxypropylcellulose) (HPC)
  T/C: 108 % of control and 118 % of control
dose: 100.0 mg/kg/injection, schedule: Q01DX005 (ip), vehicle: Klucel (hydroxypropylcellulose) (HPC)
  T/C: 123 % of control

## CN(C)CCNc1ccc(N)c2sc3ccccc3c(=O)c12
dose: 25.0 mg/kg/injection, schedule: Q01DX009 (ip), vehicle: saline with Tween-80
  T/C: 99 % of control and 92 % of control
[1]
  T/C: 100 % of control and 112 % of control and 93 % of control
[2]
  T/C: 112 % of control and 121 % of control

## COc1cc(N(CCCl)CCCl)ccc1/C=N\NC(=O)c1cccnc1
dose: 25.0 mg/kg/injection, schedule: Q01DX007 (ip), vehicle: Klucel (hydroxypropylcellulose) (HPC)
  T/C: 95 % of control
dose: 50.0 mg/kg/injection, schedule: Q01DX007 (ip), vehicle: Klucel (hydroxypropylcellulose) (HPC)
  T/C: 108 % of control
dose: 100.0 mg/kg/injection, schedule: Q01DX007 (ip), vehicle: Klucel (hydroxypropylcellulose) (HPC)
  T/C: 100 % of control
dose: 200.0 mg/kg/injection, schedule: Q01DX007 (ip), vehicle: Klucel (hydroxypropylcellulose) (HPC)
  T/C: 101 % of control

## O=C(O)C1CCC=CCC1
dose: 50.0 mg/kg/injection, schedule: Q01DX009 (ip), vehicle: other
  T/C: 100 % of control
dose: 100.0 mg/kg/injection, schedule: Q01DX009 (ip), vehicle: other
  T/C: 104 % of control
dose: 200.0 mg/kg/injection, schedule: Q01DX009 (ip), vehicle: other
  T/C: 100 % of control

## CCN(CC)CCNc1ccc(C)c2sc3ccccc3c(=O)c12
dose: 6.25 mg/kg/injection, schedule: Q01DX005 (ip), vehicle: distilled water + Tween-80
  T/C: 100 % of control and 106 % of control
dose: 6.25 mg/kg/injection, schedule: Q01DX009 (ip), vehicle: water
  T/C: 100 % of control
dose: 7.8 mg/kg/injection, schedule: Q01DX005 (ip), vehicle: saline
  T/C: 109 % of control
dose: 12.5 mg/kg/injection, schedule: Q01DX005 (ip), vehicle: distilled water + Tween-80
  T/C: 101 % of control and 104 % of control and 107 % of control
dose: 12.5 mg/kg/injection, schedule: Q01DX009 (ip), vehicle: water
  T/C: 99 % of control
dose: 13.0 mg/kg/injection, schedule: Q01DX005 (ip), vehicle: water
  T/C: 120 % of control
dose: 15.6 mg/kg/injection, schedule: Q01DX005 (ip), vehicle: saline
  T/C: 113 % of control
dose: 16.2 mg/kg/injection, schedule: Q01DX005 (ip), vehicle: saline
  T/C: 107 % of control and 108 % of control
dose: 16.2 mg/kg/injection, schedule: Q01DX005 (ip), vehicle: water
  T/C: 107 % of control
dose: 19.4 mg/kg/injection, schedule: Q01DX005 (ip), vehicle: saline
  T/C: 102 % of control
dose: 19.4 mg/kg/injection, schedule: Q01DX005 (ip), vehicle: water
  T/C: 109 % of control
dose: 19.44 mg/kg/injection, schedule: Q01DX005 (ip), vehicle: saline
  T/C: 114 % of control
dose: 21.6 mg/kg/injection, schedule: Q01DX005 (ip), vehicle: water
  T/C: 117 % of control
dose: 25.0 mg/kg/injection, schedule: Q01DX005 (ip), vehicle: saline with Tween-80
  T/C: 114 % of control
dose: 25.0 mg/kg/injection, schedule: Q01DX009 (ip), vehicle: water
  T/C: 100 % of control
dose: 27.0 mg/kg/injection, schedule: Q01DX005 (ip), vehicle: saline
  T/C: 114 % of control
dose: 27.0 mg/kg/injection, schedule: Q01DX005 (ip), vehicle: water
  T/C: 118 % of control
dose: 32.4 mg/kg/injection, schedule: Q01DX005 (ip), vehicle: saline
  T/C: 111 % of control
dose: 32.4 mg/kg/injection, schedule: Q01DX005 (ip), vehicle: water
  T/C: 119 % of control
dose: 38.9 mg/kg/injection, schedule: Q04DX003 (ip), vehicle: saline
  T/C: 119 % of control
dose: 45.0 mg/kg/injection, schedule: Q01DX005 (ip), vehicle: saline
  T/C: 124 % of control
dose: 50.0 mg/kg/injection, schedule: Q01DX009 (ip), vehicle: water
  T/C: 115 % of control
dose: 54.0 mg/kg/injection, schedule: Q01DX005 (ip), vehicle: saline
  T/C: 152 % of control
dose: 54.0 mg/kg/injection, schedule: Q01DX005 (ip), vehicle: water
  T/C: 123 % of control
dose: 62.5 mg/kg/injection, schedule: Q01DX005 (ip), vehicle: saline
  T/C: 181 % of control
dose: 75.0 mg/kg/injection, schedule: Q01DX005 (ip), vehicle: saline
  T/C: 156 % of control
dose: 75.0 mg/kg/injection, schedule: Q01DX005 (ip), vehicle: water
  T/C: 151 % of control
dose: 80.0 mg/kg/injection, schedule: Q01DX005 (ip), vehicle: water
  T/C: 156 % of control
dose: 90.0 mg/kg/injection, schedule: Q01DX005 (ip), vehicle: saline
  T/C: 154 % of control
dose: 125.0 mg/kg/injection, schedule: Q01DX005 (ip), vehicle: saline
  T/C: 166 % of control and 168 % of control
dose: 180.0 mg/kg/injection, schedule: Q04DX003 (ip), vehicle: saline
  T/C: 168 % of control

## O=C(OC(=O)c1cccc(-c2ccccc2)c1)c1cccc(-c2ccccc2)c1
dose: 100.0 mg/kg/injection, schedule: Q04DX003 (ip), vehicle: Klucel (hydroxypropylcellulose) (HPC)
  T/C: 104 % of control
dose: 200.0 mg/kg/injection, schedule: Q04DX003 (ip), vehicle: Klucel (hydroxypropylcellulose) (HPC)
  T/C: 90 % of control
dose: 400.0 mg/kg/injection, schedule: Q04DX003 (ip), vehicle: Klucel (hydroxypropylcellulose) (HPC)
  T/C: 90 % of control

## COc1cc(C2C(C#N)=CNc3nc(N)nc(N)c32)cc(OC)c1OC (centres undefined)
[3]
  T/C: 120 % of control

## COC(=O)C1(CS(C)=O)NC(=S)NC(=O)C1C#N (centres undefined)
[3]
  T/C: 106 % of control
dose: 120.0 mg/kg/injection, schedule: Q01DX005 (ip), vehicle: saline with Tween-80
  T/C: 99 % of control
dose: 240.0 mg/kg/injection, schedule: Q01DX005 (ip), vehicle: saline with Tween-80
  T/C: 97 % of control

## O=c1cccccc1[O][Sn]([Cl])([Cl])[O]c1cccccc1=O
dose: 25.0 mg/kg/injection, schedule: Q01DX001 (ip), vehicle: Klucel (hydroxypropylcellulose) (HPC)
  T/C: 97 % of control
dose: 50.0 mg/kg/injection, schedule: Q01DX001 (ip), vehicle: Klucel (hydroxypropylcellulose) (HPC)
  T/C: 99 % of control
[4]
  T/C: 99 % of control

## COC(=O)Nc1cc2c(cc1[N+](=O)[O-])OCCOCCOCCOCCO2
dose: 50.0 mg/kg/injection, schedule: Q01DX005 (ip), vehicle: saline with Tween-80
  T/C: 100 % of control
dose: 100.0 mg/kg/injection, schedule: Q01DX005 (ip), vehicle: saline with Tween-80
  T/C: 98 % of control
dose: 200.0 mg/kg/injection, schedule: Q01DX005 (ip), vehicle: saline with Tween-80
  T/C: 101 % of control

## CN=C(N)N/N=C(\C)c1ccc2oc3ccc(/C(C)=N/NC(N)=NC)cc3c2c1
dose: 25.0 mg/kg/injection, schedule: Q04DX002 (ip), vehicle: saline with Tween-80
  T/C: 150 % of control
dose: 50.0 mg/kg/injection, schedule: Q04DX002 (ip), vehicle: saline with Tween-80
  T/C: 150 % of control
dose: 100.0 mg/kg/injection, schedule: Q04DX002 (ip), vehicle: saline with Tween-80
  T/C: 154 % of control

## ClCc1nnc2cccc(Cl)n12
[4]
  T/C: 102 % of control
dose: 200.0 mg/kg/injection, schedule: Q01DX001 (ip), vehicle: Klucel (hydroxypropylcellulose) (HPC)
  T/C: 96 % of control
dose: 400.0 mg/kg/injection, schedule: Q01DX001 (ip), vehicle: Klucel (hydroxypropylcellulose) (HPC)
  T/C: 99 % of control

## NC(=S)N/N=C/c1ccc(-c2ccccc2)cc1
dose: 12.5 mg/kg/injection, schedule: Q04DX003 (ip), vehicle: saline with Tween-80
  T/C: 110 % of control
dose: 25.0 mg/kg/injection, schedule: Q04DX003 (ip), vehicle: saline with Tween-80
  T/C: 120 % of control
dose: 50.0 mg/kg/injection, schedule: Q04DX003 (ip), vehicle: saline with Tween-80
  T/C: 100 % of control

## CCC1C2Cc3ccc(O)cc3C1(CC)CCN2Cc1ccoc1 (centres undefined)
[1]
  T/C: 96 % of control
[2]
  T/C: 88 % of control
[5]
  T/C: 91 % of control

## FC(F)(F)COP1(OCC(F)(F)F)(OCC(F)(F)F)SC(C(F)(F)F)=C(C(F)(F)F)S1
dose: 50.0 mg/kg/injection, schedule: Q04DX002 (ip), vehicle: saline
  T/C: 102 % of control and 103 % of control
dose: 100.0 mg/kg/injection, schedule: Q04DX002 (ip), vehicle: saline
  T/C: 99 % of control and 100 % of control (2×)
dose: 200.0 mg/kg/injection, schedule: Q04DX002 (ip), vehicle: saline
  T/C: 100 % of control and 107 % of control
dose: 400.0 mg/kg/injection, schedule: Q04DX002 (ip), vehicle: saline
  T/C: 102 % of control and 107 % of control

## O=C(Nc1cc(C(F)(F)F)ccc1Cl)n1nc(Cl)c2ccc([N+](=O)[O-])cc21
[1]
  T/C: 102 % of control
[2]
  T/C: 104 % of control
[5]
  T/C: 95 % of control

## CCc1c2c(c(C)n1C)C(c1ccccc1)=NCC(=O)N2
[1]
  T/C: 91 % of control
[2]
  T/C: 98 % of control
[5]
  T/C: 98 % of control
